Results from US10184933B2, “Compositions, systems and methods for gene expression noise drug screening and uses thereof” (priority 2013, dated 2019).
Entries after “also recorded” stand apart in the source; their conditions may differ. Counter-ions that a name gives are not always drawn. Like-named read-outs stand apart in the source and are kept apart here.

Columns and labels:
[1] = in vivo, cited from earlier work
HIV-1 LTR promoter [2] = assay type: cell-based
HIV-1 LTR promoter [3] = assay: Two-reporter system (LTR-d2GFP and LTR-mCherry) noise measurement; assay type: cell-based; conditions: FIG. 6E; for d2GFP noise / mCherry noise: known transcriptional activators; for transcriptional burst frequency (decreasing noise in mCherry): transcriptional modifiers
Method: Without being bound by theory, a destabilized reporter is required to observe transcriptional noise with shorter time scales. GFP noise magnitude (quantified by the variance over the mean fluorescence squared, CV^2) and mean fluorescence were measured by high-throughput flow cytometry 24 hours post 10 uM drug exposure. To control for extrinsic variability in gene expression due to cell volume and state a conservative gating on the population forward versus side scatter was applied (See General Methods). A second LTR driving a long-lived mCherry reporter was integrated and screened alongside the destabilized reporter drug target to control for fluctuations in global resources and post-transcriptional noise sources (FIG. 6E).
To distinguish between compounds that primarily target transcription versus post-transcriptional processes and global resources (extrinsic noise) a second reporter of the LTR promoter driving a stable mCherry gene was included in the same targeted cell population used in the drug noise screen (FIG. 6E). The stable reporter averages out and is unaffected by fluctuations due to episodic transcription. Theory predicts that the destabilized d2GFP reporter can detect transcriptional bursting noise contributions (γp>>kon,koff, where γp is the fluorescent reporter degradation rate) while the two reporters together will move their noise magnitudes to changes in non-transcriptional noise sources. Filtering out non-transcriptional noise signatures of VM hits increases the probability for synergistic reactivation of latency. Noise from the two reporters was compared using the same processing as the LTR-d2GFP. The LTR-mCherry ΔCV^2 of the 85 selected VMs primarily land along the ΔCV^2 d2GFP axis. […]. Of these 25 compounds 15 were identified as modifiers of cell cycle, ATP, inflammation, post-translational modifications, and translation.
In addition to the GFP reporter in the LTR-d2GFP cell line, an LTR driving a long half-life mCherry reporter was present in the cell line. […] To remove compounds that altered CV^2 post transcriptionally, compounds that affected the CV^2 long-lived red reporter while conserving its mean mCherry level were removed. This method continues development of the original and decade-old 2-reporter system for intrinsic versus extrinsic noise measurements in bacteria (Elowitz et al., (2002) Science 297:1183-1186).

HIV-1 LTR promoter [4] = assay: as above; assay type: cell-based; conditions: alternate set of integration sites
JLat cell line 8.6 = system: JLat cell line 8.6
Method: FIG. 17 schematically depicts reactivation percentage versus drug toxicity for conventional reactivation cocktails (e.g. TNF+Prostratin, SAHA+Prostratin, SAHA+TNF+Prostratin) and 21 cocktails containing noise-enhancer compounds in combination with TNF+Prostratin. Controls: TNF alone, Prostratin alone, and Untreated, as indicated. Measurements were performed in duplicate on JLat cell line 8.6 after 48 h treatment. […] Details are described, e.g., in Example 9.
To test whether reactivation could be further optimized, the doses of noise enhancers and activators were varied (FIG. 14).

[5] = system: latent HIV-1 in JLat 9.2 cells; assay: HIV-1 latency reactivation in JLat 9.2 cells; assay type: cell-based
Method: Jurkat cells were cultured in RPMI 1640 supplemented with 10% FBS and 1% penicillin-streptomycin. JLat 6.3, JLat 8.6, and JLat 9.2 cells are Jurkat T cell lines containing integrated but transcriptionally latent HIV-1 proviruses.
Drug treatments were performed for 24 hours at 10 uM final concentration in 96-well plates. Compounds were automatically added into 200 μl cultures at the final concentration of 0.1% DMSO. […] Plates were kept in the incubator until measurement and each well was automatically mixed before samples were analyzed. 5×10^4 of all live cells that passed a specific forward scatter (FSC)—side scatter (SSC) gate were collected from each well for noise magnitude measurements from which a conservative gating was applied for about 3×10^3 cells of similar FSC vs SSC to reduce extrinsic noise contributions primarily due to differences in cell volume and state. Each 96-well plate included a column of untreated control cells, cells treated with TNFα (positive control) and one well of non-′ fluorescent naïve Jurkat cells. For HIV-1 reactivation experiments 1×10^4 live cells were collected.

[6] = system: latent HIV-1 in JLat 8.6 cells; assay type: cell-based
[7] = system: latent HIV-1 in JLat 15.4; assay: HIV-1 latency reactivation in JLat 15.4 cells; assay type: cell-based
[8] = system: latent HIV-1 in primary T-cells; assay type: cell-based; conditions: primary T-cell model
Method: FIG. 18A schematically depicts a primary T-cell model of HIV-1 latency 48 h after reactivation with PMA or a subset of noise enhancers (% reactivation percentage is calculated relative to maximal reactivation potential). […] The horizontal line represents the mean calculated Bliss Independence Score (C. I. Bliss, Ann. Appl. Biol. 26:585-615 (1939)), a measure for strict additivity for all of the compounds. FIG. 18B schematically depicts stochastic simulations of noise suppression, which reduces noise without altering the mean expression level but limits reactivation induced by an activator. […] Details are described, e.g., in Example 10.

latent HIV-1 = conditions: Bocklandt et al., 2003; cited from earlier work
[9] = >500 nM for more than 2 days; Williams et al., 2004; cited from earlier work
HIV-1 LTR promoter [10] = conditions: shotgun imaging approach, Boehm et al., 2013; cited from earlier work
[11] = known transcriptional modulators applied to the isoclone target, FIG. 6D

With `CCCC(CCC)C(=O)O` [VPA, 2-propylpentanoic acid] as the molecule, how does the “time of peak serum levels” value ([1]; po) read?
The value was 1 to 4 h.

What about the serum half-life [1] of the same molecule?
The serum half-life was 6 to 16 h.

And the “variability in gene expression (noise magnitude)” value (“variability in gene expression” below) (HIV-1 LTR promoter [2]; [11])?
The value was “increase variability in gene expression; also recorded: variability enhancers”.

And the d2GFP noise (HIV-1 LTR promoter [3])?
The d2GFP noise was “increase d2GFP noise”.

And the mCherry noise (HIV-1 LTR promoter [3])?
Its mCherry noise is “decrease mCherry noise”.

For `O=C(CCCCCCC(=O)Nc1ccccc1)NO` [SAHA, N-hydroxy-N′-phenyl-octanediamide], which “transcriptional variability (d2GFP) with dose response” value (HIV-1 LTR promoter [4]) is on record?
Its value is “increasing transcriptional variability”.

What about the “identified as variability enhancer (VE) in noise screen” value (HIV-1 LTR promoter [2]; Pharmakon 1600 library, 10 uM, 24 hours, FIG. 10) of the same molecule?
The value was “variability enhancers”.

And the “variability in gene expression” value (HIV-1 LTR promoter [2]; [11])?
The value was “increase variability in gene expression; also recorded: variability enhancers”.

What about the “off-target cytotoxicity for uninfected cells” value (JLat cell line 8.6) of the same molecule?
The value was “substantial off-target cytotoxicity”.

And the d2GFP noise (HIV-1 LTR promoter [3])?
The d2GFP noise was “increase d2GFP noise”.

And the mCherry noise (HIV-1 LTR promoter [3])?
Its mCherry noise is “decrease mCherry noise”.

What about the “transcriptional burst frequency (decreasing noise in mCherry)” value (HIV-1 LTR promoter [3]) of the same molecule?
Its value is “increase transcriptional burst frequency”.

With `COC(=O)C1=C(C)NC(C)=C(C(=O)OCCN2CCN(C(c3ccccc3)c3ccccc3)CC2)C1c1cccc([N+](=O)[O-])c1` (stereo not drawn) [VS1, manidipine hydrochloride] as the molecule, how does the “decrease of TNFα-mediated reactivation” value [5] read?
The value was “about 40%”.

What about the “decrease of TNF-induced reactivation” value ([6]; JLat 8.6) of the same molecule?
Its value is roughly 40%.

What about the “decrease of TNF-induced reactivation” value [7] of the same molecule?
Its value is roughly 40%.

And the “decrease of Prostratin-induced reactivation” value [8]?
The value was roughly 50%.

With `CC1=C[C@H]2[C@@]3(O)[C@H](C)C[C@]4(OC(=O)Cc5ccccc5)C([C@@H]3C=C(CO)C[C@]2(O)C1=O)C4(C)C` (stereo partly drawn) [DPP, 12-deoxyphorbol 13-phenylacetate] as the molecule, how does the “potency relative to prostratin” value (latent HIV-1) read?
Its value is 20-40 fold.

Which results are given for `CC(=O)O[C@@]12C[C@@H](C)[C@@]3(O)[C@@H](C=C(CO)C[C@]4(O)C(=O)C(C)=C[C@@H]34)[C@@H]1C2(C)C` [Prostratin, 12-deoxyphorbol 13-acetate]?
reactivation by activator alone ([6]; Prostratin alone, 48 hr): 6%; burst frequency (HIV-1 LTR promoter [2]; activator drugs, FIG. 6D): increase burst frequency; mean expression level (HIV-1 LTR promoter [2]; [11]): increase mean expression level; variability in gene expression (noise magnitude) (HIV-1 LTR promoter [2]; [11]): decrease noise magnitude; variability in gene expression (noise magnitude) (HIV-1 LTR promoter [2]; known transcriptional modulators applied to the isoclone target, FIG. 6D, listed as prostratin): decrease variability in gene expression; d2GFP noise (HIV-1 LTR promoter [3]): decrease both mCherry and d2GFP noise; mCherry noise (HIV-1 LTR promoter [3]): decrease both mCherry and d2GFP noise; transcriptional burst frequency (decreasing noise in mCherry) (HIV-1 LTR promoter [3]): increase transcriptional burst frequency; toxicity [9]: substantial growth arrest and cell death

With `Cc1sc2c(c1C)C(c1ccc(Cl)cc1)=N[C@@H](CC(=O)OC(C)(C)C)c1nnc(C)n1-2` [JQ1, t-Butyl-2-((6S)-4-(4-chlorophenyl)-2,3,9-trimethyl-6H-thieno[3,2-f][1,2,4]triazolo[4,3-a][1,4]diazepin-6-yl)acetate] as the molecule, how does the “noise magnitude across integration sites” value (HIV-1 LTR promoter [10]) read?
Its value is “global increase in noise magnitude”.

What about the “variability in gene expression” value (HIV-1 LTR promoter [2]; [11]) of the same molecule?
Its value is “increase variability in gene expression; also recorded: variability enhancers”.

With `CC(/C=C/C(=O)NO)=C\[C@@H](C)C(=O)c1ccc(N(C)C)cc1` [TSA, [R-(E,E)]-7-[4-(Dimethylamino)phenyl]-N-hydroxy-4,6-dimethyl-7-oxo-2,4-heptadienamide] as the molecule, how does the “transcriptional variability (d2GFP) with dose response” value (HIV-1 LTR promoter [4]) read?
The value was “increasing transcriptional variability”.

What about the “variability in gene expression” value (HIV-1 LTR promoter [2]; [11]) of the same molecule?
Its value is “increase variability in gene expression; also recorded: variability enhancers”.

And the d2GFP noise (HIV-1 LTR promoter [3])?
Its d2GFP noise is “increase d2GFP noise”.

And the mCherry noise (HIV-1 LTR promoter [3])?
Its mCherry noise is “decrease mCherry noise”.

And the “transcriptional burst frequency (decreasing noise in mCherry)” value (HIV-1 LTR promoter [3])?
Its value is “increase transcriptional burst frequency”.
